What all share (assay type): in vivo
The subject of one assay is paddy grains. Put plainly: Analysis of micronutrient absorption levels in paddy grains by ICP. Conditions: paddy grain powder, acid digest. The procedure: Analysis of Micronutrients in Paddy Samples by ICP (Inductive Coupled Plasma) Equipment.
The method include the steps of:— • 1. 1 gm of grain powder was added to 60 ml of perchloric acid and Nitric acid (9:1) and were digested overnight. • 2. Heat the mixtures at 100 c for 2 hours until vapors change from red to white color. • 3. The resultant solution was filtered through a Whatman paper and makeup to 100 ml with 1% nitric acid. • 4. The solution was tested for micronutrients by ICP.

Assay [1] deals with plants. Put plainly: Total polyphenol content (Folin-Ciocalteu, absorbance at 765 nm). The following applies: 1 g test sample, 70% methanol extract. The procedure:
Total polyphenol content were estimated by performing the following steps:— • 10-15 ml of 70% MeOH (70 ml methanol: 30 ml water) were added to 1 g of test sample • Filter through whatman filter paper 1 and was made up to 25 ml with 70% methanol. • 5 ml of folin ciocalteu's phenol reagent were added. • Incubation for 5 mins. • 4 ml of 7.5% Na2CO3 were added and incubated for 1 hr. • absorbance was measured at 765 nm.

Assay [2] concerns plants. Put plainly: Total protein content (Lowry method, absorbance at 660 nm). Conditions: 1 g of sample in 25 ml. The procedure:
Total protein content in the sample content were estimated by performing Lowry method which include the following steps:— • 1 g of samples in 25 ml were filtered through whatman filter paper 1 • 4.5 ml of a reagent comprising NaOH, sodium potassium tartrate, and CuSO4.5H2O were added and incubated for 10 mins. • After incubation, 0.5 ml of Folin-Ciocalteu's phenol reagent were added and incubated for 30 mins. • Absorbance was measured with UV Vis Spectrophotometer At 660 nm and a standard graph was plotted.

As for `COc1ccc2[nH]cc(CCNC(C)=O)c2c1` [Melatonin, N-Acetyl-5-methoxytryptamine], in the assay on paddy grains, the Al amounted to 241.3 ppm, the B was determined as 40.5 ppm, the Ca came to 405.7 ppm and the Co came to 15.4 ppm. In the assay on paddy grains, this compound registered a Fe of 257.9 ppm, a Mg of 697.2 ppm, a Mn of 42.5 ppm and a Zn of 29.1 ppm. Further, the “Total Phenol content in ppm” value with plants [1] came out at 18.6 ppm. Further, in the assay with plants [2], the “Total Protein content in %” value is given as 0.076%.

Source of the values: patent US20240156094A1, “MELATONIN COMPOSITION WITH METALS AND A METHOD FOR ENHANCING ENZYMATIC REACTIONS AND METABOLIC PATHWAYS IN PLANTS” (FERTIS INDIA PVT. LTD., priority 2021, published 2024).
